Experimental data as given in patent US12171232B1, “N-[(4,6-dimethylpyrimidin-2-yl)carbamothioyl] pyridine-3-carboxamide as an eco-friendly insecticidal agent against Spodoptera littoralis (boisd.)” (KING FAISAL UNIVERSITY, priority 2023, dated 2024).
In brackets after ≈: the same amount, converted by molar mass. Read-outs that look alike come from different tables or passages of the source.

System: Spodoptera littoralis
Assay: Insecticidal bioassay screening (castor leaf dip) on larvae of the laboratory strain of cotton leafworm
Assay type: in vivo
Details: for Toxicity index %: 72 hrs, Diflubenzuron's LC50 / compound's LC50 x 100; for LC90 (mg/L) at 95%: laboratory strain, after 72 hrs of treatment; for LC50: Spodoptera littoralis, foliar
Protocol: Five concentrations (200, 100, 50, 25, 12.5 ppm) were designed for this synthetic compound and the reference Diflubenzuron compound as the dynamic ingredients based on ppm via diluting the commercial formulation.
In this experiment, castor leaves are immersed in each of the previously prepared concentrations of the components for 10 seconds and then left to dry for 60 minutes. Larvae of the second and fourth instars of each checked strain are prepared with treated leaves in gauze-covered glass containers for 72 hrs. An untreated control is made in which leaves are dipped in triton x-100 and distilled water only. Then the preserved leaves were removed & fresh, untreated leaves were provided for 72 hours. Three replicates (10 larvae each) were checked for each concentration. Daily inspection was carried out for all treatments and mortality percentages were recorded 3 days (72 hours) after treatment. The average mortality percentage was corrected employing Abbott's formula. The corrected mortality rate for each of the previously synthesized compounds is statistically calculated according to Finney (1970). Through this rate, the corresponding concentration test lines (LDP lines) are assessed.

[1] = 72 h, read-out: LC50 (mg/L) at 95%, 2nd instar larvae, laboratory strain, after 72 hrs of treatment
[2] = 72 h, read-out: LC50 (mg/L) at 95%, 4th instar larvae, laboratory strain, after 72 hrs of treatment

Row | Compound | Toxicity index % (2nd instar larvae) [%] | LC90 (mg/L) at 95% (2nd instar larvae) [mg/L] | Toxicity index % (4th instar larvae) [%] | LC90 (mg/L) at 95% (4th instar larvae) [mg/L] | LC50 [1] [mg/L] | LC50 [2] [mg/L] | activity against Spodoptera littoralis (result in words, from Table 1 and FIGS. 2A-2B, 72 h) | LC50 (against Spodoptera littoralis under laboratory conditions, instar not stated) [mg/L]
1 | Cc1cc(C)nc(NC(=S)NC(=O)c2cccnc2)n1 [Compound 2, N-[(4,6-Dimethylpyrimidin-2-yl)carbamothioyl]pyridine-3-carboxamide] | 31.8 | 2112.3 (≈ 7350 µM) | 44.9 | 5732.3 (≈ 19900 µM) | ~142 (≈ 495 µM) | ~321 (≈ 1120 µM) | active | –
2 | O=C(NC(=O)c1c(F)cccc1F)Nc1ccc(Cl)cc1 [Diflubenzuron] | 100 | 520.0 (≈ 1670 µM) | 100 | 1540.5 (≈ 4960 µM) | 45.2 (≈ 145 µM) | 144 (≈ 464 µM) | – | 45.2 (≈ 145 µM)
